Measurements from publication PMC9804781, “Identification of a Novel Pseudo‐Natural Product Type IV IDO1 Inhibitor Chemotype” (Angewandte Chemie (International Ed. in English), 2022).
Several values for one entry are separate records, joined by “and”; a condition that tells them apart may be missing. Equal entries are not always repeated. Where two headings read alike, the source gives them in different places.

Tests used:
Kyn levels in HeLa cells = assay: Manual Kyn assay in HeLa cells (p-DMAB detection); format: cell-based; conditions: for IC50: IFN-γ, L-Trp, p-DMAB
Description: (§1) Mammalian cell lines were maintained at 37°C and 5% CO2 in a humidified atmosphere and sub-cultivated twice a week. All cell lines were tested regularly for mycoplasma contamination and were always free of mycoplasma. BxPC-3 cells (DSMZ#760) were grown in RPMI-1640 medium supplemented with 10% FBS, 2 mM L-glutamine, 1 mM sodium pyruvate, 4.5 g/L glucose, 10 mM HEPES and 1.5 g/L NaHCO3. HeLa cells (DSMZ#57) were cultivated in DMEM supplemented with 10% FBS, 4.5 g/L glucose, 4 mM L-glutamine 1 mM sodium pyruvate, 1% non-essential amino acids, 3.7 g/L NaHCO3. SKOV-3 cells (ATCC#HTB-77) were maintained in modified McCoy’s 5A medium supplemented with 10% FBS, 1.5 mM L-glutamine and 2.2 g/L NaHCO3. […]
For manual testing, BxPC-3, HeLa or SKOV-3 cells (20,000 cells/well, 5,000 cells/well or 6,250 cells/well, respectively) were seeded in 96-well plates (BxPC-3 and HeLa) or 384-well plates (SKOV-3) in medium without phenol red. After 24 h, the IDO1 pathway was induced by addition of 50 ng/mL (BxPC-3 and HeLa) or 17.6 ng/mL IFN-γ (SKOV-3) and 380 µM (BxPC-3), 164.15 µM (HeLa) or 450 µM L-Trp (SKOV-3) with simultaneous treatment with the compounds at the indicated concentrations followed by incubation for 48 h. For the hemin competition assay, hemin was added together with IFN-γ, L-Trp and the compounds. Subsequently, trichloroacetic acid was added to a final concentration of 7% (v/v), the plates were incubated for 15 min at room […]
(§2) temperature and centrifuged for 10 min at 1800 x g. Afterwards, an equal volume of freshly prepared 2% (w/v) p-DMAB in glacial acetic acid (Ehrlich reagent) was added prior to measuring the absorbance at 492 nm and 650 nm on the Spark® Multimode Microplate Reader (Tecan, AT).
To determine the Kyn levels, the absorbance of the Kyn-p-DMAB adduct A492 was subtracted by the background absorbance A650 and normalized to the DMSO control. Data analysis was performed using a non-linear regression curve fit and GraphPad Prism 9.0 (GraphPad Software, Inc, US) to generate dose-response curves and obtain IC50 values. […]
Subsequently, 10 mM ascorbic acid, 10 μM methylene blue, 2 mM L-Trp and 100 μg/mL catalase were added and samples were incubated for 60 min at room temperature or 37°C. […]

rhIDO1 (holo-IDO1) = molecular target: T1, rhIDO1 (holo-IDO1) (Homo sapiens, UniProt P14902); assay: nanoDSF thermal denaturation of IDO1; format: binding
T1 construct: His; made in house; host or cells: E. coli
T1 sequence (P14902 whole entry): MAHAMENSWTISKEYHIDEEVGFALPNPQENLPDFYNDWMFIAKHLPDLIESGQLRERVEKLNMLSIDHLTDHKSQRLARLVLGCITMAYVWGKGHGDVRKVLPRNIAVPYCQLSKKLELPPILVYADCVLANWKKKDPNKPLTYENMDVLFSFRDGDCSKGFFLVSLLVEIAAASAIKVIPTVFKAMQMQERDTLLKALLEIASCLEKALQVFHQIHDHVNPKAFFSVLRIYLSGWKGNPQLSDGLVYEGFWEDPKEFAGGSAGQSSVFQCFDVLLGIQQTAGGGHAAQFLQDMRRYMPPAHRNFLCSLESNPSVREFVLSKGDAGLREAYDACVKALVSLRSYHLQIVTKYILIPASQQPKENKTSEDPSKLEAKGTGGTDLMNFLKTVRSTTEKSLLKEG
Description: 11 µM rhIDO1 was incubated with compounds at indicated concentrations for 60 min at 37°C in 50 mM potassium phosphate buffer (16.9 mM K2HPO4, 33.1 mM, KH2PO4, pH 6.5). The thermal protein stability from 20°C to 90°C (1°C/min) was measured by means of the intrinsic tryptophan/tyrosine fluorescence using the Prometheus™ NT.48 (NanoTemper® Technologies, DE). Melting scans, first derivatives of melting scans and melting temperatures were analyzed using PR.ThermControl software (NanoTemper® Technologies, DE). Binding affinities were determined by plotting the melting temperature against the ligand concentration and fitting with a single site ligand binding function using GraphPad Prism 9.0 (GraphPad Software, Inc, US). The isothermal analysis of the nanoDSF data was performed with FoldAffinity[1] with an assumed heat capacity change ΔCp of zero. […]

[1] = Stability of Apoxidole-1 in Serum; format: in vitro ADME; conditions: 400 µM in FBS, 37°C, up to 48 h
Description: transparent microplates (UV-STAR®, Greiner AG, AT). Subsequently, absorbance spectra from 250 nm to 550 nm were recorded on the Spark® Multimode Microplate Reader (Tecan, AT).
SKOV-3 cells (1.25 x 10^6 cells/flask) were seeded in two T75 tissue culture flasks and incubated for 24 h prior to addition of 17.6 ng/mL IFN-γ and 10 µM succinylacetone (SA, heme synthesis inhibitor). After 24 h, cells were treated with the compound (C) or DMSO (V, vehicle) for 15 min at 37°C. Cells were detached with trypsin/EDTA and washed thrice in cold PBS after resuspension in cold PBS. C- and V-treated samples were distributed equally into ten tubes each and subjected to heating at different temperatures in the MasterCycler EpGradient S (Eppendorf SE, DE). Afterwards, NP-40 alternative was added to a final concentration of 0.4% (v/v) and cells were lysed by five consecutive freeze/thaw cycles. Soluble fractions were separated from denatured proteins by centrifugation at 100,000 x g and 4°C for 20 min. […]
A truncated version of recombinant human GST-IDO1 (rhIDO1) consisting of amino acids 5-400 of the 403 amino acid-long full-length human IDO1 was expressed in E. coli and purified as published previously.[15] The heme cofactor was released from IDO1 by overnight incubation with 2-mercaptoethanesulfonate (MESNA) as described previously[18] and heme occupancy was determined by UV/Vis spectrophotometry. […]

[2] = test system: Kyn levels in BxPC-3 cells; assay: Manual Kyn assay in BxPC-3 cells (p-DMAB detection), incl. hemin competition; format: cell-based; conditions: IFN-γ, L-Trp
Description: as §1
For manual testing, BxPC-3, HeLa or SKOV-3 cells (20,000 cells/well, 5,000 cells/well or 6,250 cells/well, respectively) were seeded in 96-well plates (BxPC-3 and HeLa) or 384-well plates (SKOV-3) in medium without phenol red. […]
as §2
To determine the Kyn levels, the absorbance of the Kyn-p-DMAB adduct A492 was subtracted by the background absorbance A650 and normalized to the DMSO control. […]

For `CCOC(=O)C1=CC[C@](C(=O)OC)(c2cc3ccccc3n2C)N(S(=O)(=O)c2ccc(C)cc2)[C@@H]1C(=O)OC(C)(C)C` [Compound 3d], the “fold less active than enantiopure apoxidole-1 (Kyn assay)” value (Kyn levels in HeLa cells) was 72 fold, the IC50 (Kyn levels in HeLa cells; Homo sapiens, HeLa, 48 h, 48 h, mean±SD, n=3, read-out: Kyn assay IC50 HeLa) was 46.7 ± 2.4 nM and the IC50 (Kyn levels in HeLa cells; 48 h, mean±SD, n=3, listed as apoxidole-1, read-out: Kyn assay IC50 HeLa) was 46.7 ± 2.44 nM. For the same compound, the IC50 (Kyn levels in HeLa cells; compounds 48 h, mean n=3 ±SD, listed as 3d^a, read-out: Kyn Assay IC50) was 280 ± 40 nM, the IC50 (Kyn levels in HeLa cells; compounds 48 h, mean n=3 ±SD, listed as 3d^ab, read-out: Kyn Assay IC50) was 3410 ± 260 nM and the IC50 (Kyn levels in HeLa cells; compounds 48 h, mean n=3 ±SD, listed as 3d^b, read-out: Kyn Assay IC50) was 47 ± 2 nM. The IC50 (Kyn levels in HeLa cells; compounds 48 h, mean n=3 ±SD, read-out: Kyn Assay IC50) was 70 ± 10 nM, the Kd (rhIDO1 (holo-IDO1); 48 °C, FoldAffinity, first replicate, read-out: KD, 48°C (isothermal analysis, single replicate)) was 11.6 nM and the Kd (rhIDO1 (holo-IDO1); 49 °C, FoldAffinity, read-out: KD, 49°C (isothermal analysis, single replicates)) was 24.7 nM and 26 nM. The Kd (rhIDO1 (holo-IDO1); 50 °C, FoldAffinity, read-out: KD, 50°C (isothermal analysis, single replicates)) was 48.4 nM and 34.7 nM and 24.8 nM, the Kd (rhIDO1 (holo-IDO1); 51 °C, FoldAffinity, read-out: KD, 51°C (isothermal analysis, single replicates)) was 54.4 nM and 41.3 nM and 33.6 nM and the Kd (rhIDO1 (holo-IDO1); at 49 °C, read-out: KD (isothermal analysis of nanoDSF data)) was 20.7 ± 0.01 nM. For the same compound, the Kd (rhIDO1 (holo-IDO1); from Tm vs concentration, mean±SD, n=3, read-out: apparent dissociation constant KD,app) was 1100 nM and 1090 nM, the “shift of melting temperature Tm (nanoDSF)” value (rhIDO1 (holo-IDO1); holo-IDO1, 60 min at 37 °C) was 7.7±0.3 °C and the “melting temperature Tm of IDO1 with compound” value (rhIDO1 (holo-IDO1); holo-IDO1 treated with compound, DMSO 45.7±0.2 °C) was 53.5±0.2 °C. For the same compound, the “integrity of the compound in serum” value [1] was “confirmed”, the “effect of free hemin on potency in the Kyn assay” value ([2]; BxPC-3, hemin, 600 nM apoxidole-1, 48 h) was “reduced the potency” and the “activity in Kyn assay in BxPC-3 cells” value ([2]; BxPC-3 cells, 48 h, p-DMAB) was “completely inactive”.
